Data set [1] is described as follows: Intrinsic clearance in human liver microsomes. For orientation: Liver microsomes are a subcellular fraction often used to study metabolism.
A short description of data set [2]: Percentage unbound in human plasma.
In data set [3] the test system is MDA-MB-231. The experiment in a line: Growth inhibition of human MDA-MB-231 cells. Type of data set: functional. The note with it: Homo sapiens, MDA-MB-231.
Data set [4] is described as follows: Lipophilicity, log D of the compound. As to conditions: octanol/water.
Data set [5] is described as follows: Aqueous solubility of the compound.
For data set [6], the target named is E3 ubiquitin-protein ligase XIAP (Homo sapiens, UniProt P98170). The data set can be described thus: Inhibition of XIAP BIR3 domain (unknown origin) by fluorescence polarization assay. A general note: Polarisation of emitted light reports the rotation of a fluorescent probe.
Chain of E3 ubiquitin-protein ligase XIAP (P98170 whole entry, the tested form may be a part): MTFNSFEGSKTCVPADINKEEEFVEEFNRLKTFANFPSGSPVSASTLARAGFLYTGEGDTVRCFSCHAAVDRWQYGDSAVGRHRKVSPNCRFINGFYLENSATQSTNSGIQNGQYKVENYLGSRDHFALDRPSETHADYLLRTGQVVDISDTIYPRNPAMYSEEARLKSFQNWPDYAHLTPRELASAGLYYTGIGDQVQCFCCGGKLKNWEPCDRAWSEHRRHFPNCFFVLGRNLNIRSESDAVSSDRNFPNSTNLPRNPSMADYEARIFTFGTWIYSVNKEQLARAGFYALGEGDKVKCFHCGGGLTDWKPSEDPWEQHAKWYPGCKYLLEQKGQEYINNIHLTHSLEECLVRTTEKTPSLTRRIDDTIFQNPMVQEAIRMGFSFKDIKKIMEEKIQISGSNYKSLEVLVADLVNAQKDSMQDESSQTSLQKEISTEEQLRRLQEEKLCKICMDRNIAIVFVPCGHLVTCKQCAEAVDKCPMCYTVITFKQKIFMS

Converted amounts (≈) assume the structure as drawn. Bounds are passed on as bounds.

Turning to `CN[C@@H](C)C(=O)N[C@H]1CCC[C@H]2C[C@H]3CCN(CCc4ccccc4F)C[C@H]3N2C1=O`, the microsomal CLint (as a rule, the capacity of the preparation to metabolise the compound, expressed as a volume cleared per time) in data set [1] (liver microsomes, CLH) is less than 4 µL/min/mg. Moreover, the free fraction (fraction unbound) (in general, free concentration divided by total concentration) in data set [2] (Fu) came out at 0.49. The GI50 (in general, the concentration giving 50% growth inhibition) in data set [3] turned out to be 96 nM. Also, the log distribution coefficient (logD) (as a rule, the decadic logarithm of the distribution of all forms, ionised or not, between an organic phase and buffer at a given pH) in data set [4] (logD) is 1.4.

`CN[C@@H](C)C(=O)N[C@H]1CCC[C@H]2C[C@H]3CCN(CCc4ccccc4C)C[C@H]3N2C1=O` yielded a microsomal CLint in data set [1] (liver microsomes, CLH) of 6.8 µL/min/mg. In addition, the fraction unbound in data set [2] (Fu) came to 0.48. In data set [3], this molecule registered a GI50 of 370 nM. The molecule further returned a logD in data set [4] (logD) of 1.3. Moreover, the solubility (as a rule, the concentration that dissolves in the medium under given conditions) in data set [5] is more than 1000 µM.

Turning to `CN[C@@H](C)C(=O)N[C@H]1CCC[C@H]2C[C@H]3CCN(CCc4ccccc4)C[C@H]3N2C1=O`, the intrinsic clearance (microsomal CLint) in data set [1] (liver microsomes, CLH) was less than 4 µL/min/mg. The molecule also came in with an unbound share (fraction unbound) in data set [2] (Fu) of 0.51. Moreover, the GI50 in data set [3] was determined as 320 nM. Further, the logD in data set [4] (logD) came out at 1.3. The molecule also had a solubility in data set [5] of more than 1000 µM.

With `CN[C@@H](C)C(=O)N[C@H]1CCC[C@H]2C[C@H]3CCN(C(=O)Nc4ccccc4)C[C@H]3N2C1=O`, in data set [1] (liver microsomes, CLH), the intrinsic clearance (microsomal CLint) turned out to be 6.7 µL/min/mg. This molecule displayed a fraction unbound in data set [2] (Fu) of 0.62. Moreover, in data set [3], the concentration for 50% growth inhibition (GI50) was determined as 3900 nM. This molecule returned a logD in data set [4] (logD) of 0.6. Also, the solubility in data set [5] is more than 1000 µM.

For the molecule `CN[C@@H](C)C(=O)N[C@H]1CCC[C@H]2C[C@H]3CCN(CCc4ccc(O)cc4)C[C@H]3N2C1=O`, in data set [3], it took 200 nM to inhibit growth by half (GI50). In data set [4] (logD), the logD came to 0.2. This molecule also yielded a solubility in data set [5] of more than 1000 µM.

For `CN[C@@H](C)C(=O)N[C@H]1CCC[C@H]2C[C@H]3CCN(CCCc4ccccc4)C[C@H]3N2C1=O`, the free fraction (fraction unbound) in data set [2] (Fu) was found to be 0.47. Besides, in data set [3], the GI50 is more than 11000 nM. The logD in data set [4] (logD) amounted to 1.6. The IC50 (in general, the concentration needed to halve the response being measured) in data set [6] was more than 10000 nM.

In the case of `CN[C@@H](C)C(=O)N[C@H]1CCC[C@H]2C[C@H]3CCN(C(=O)Cc4ccccc4)C[C@H]3N2C1=O`, the intrinsic metabolic clearance (microsomal CLint) in data set [1] (liver microsomes, CLH) turned out to be 6.5 µL/min/mg. In data set [2] (Fu), this molecule registered a fraction unbound of 0.66. This molecule also registered a GI50 in data set [3] of 320 nM. This molecule also yielded a log distribution coefficient (logD) in data set [4] (logD) of 0.4. This molecule came in with a solubility in data set [5] of more than 1000 µM.

Consider `CN[C@@H](C)C(=O)N[C@H]1CCC[C@H]2C[C@H]3CCN(CCc4ccc(Cl)c(Cl)c4)C[C@H]3N2C1=O`, for which the microsomal CLint in data set [1] (liver microsomes, CLH) was 28 µL/min/mg. Further, the fraction unbound in data set [2] (Fu) is 0.065. In addition, in data set [3], the GI50 is 260 nM. In addition, the log distribution coefficient (logD) in data set [4] (logD) is 2.3. The solubility in data set [5] was more than 1000 µM.

Turning to `CN[C@@H](C)C(=O)N[C@H]1CCC[C@H]2C[C@H]3CCN(CCc4cccc(C)c4)C[C@H]3N2C1=O`, the intrinsic clearance (microsomal CLint) in data set [1] (liver microsomes, CLH) was 6.9 µL/min/mg. Moreover, in data set [2] (Fu), the fraction unbound was 0.47. In data set [3], this molecule yielded a GI50 of 310 nM. This molecule gave a logD in data set [4] (logD) of 1.3. The solubility in data set [5] is more than 1000 µM.

In data set [1] (liver microsomes, CLH), `CN[C@@H](C)C(=O)N[C@H]1CCC[C@H]2C[C@H]3CCN(C(=O)C(c4ccccc4)c4ccccc4)C[C@H]3N2C1=O` returned a microsomal CLint of 27 µL/min/mg. Further, in data set [2] (Fu), the free fraction (fraction unbound) was 0.039. Growth in data set [3] was halved (GI50) at 3000 nM. The same molecule had a log distribution coefficient (logD) in data set [4] (logD) of 1.4. The molecule further showed a solubility in data set [5] of more than 1000 µM.

For `CN[C@@H](C)C(=O)N[C@H]1CCC[C@H]2C[C@H]3CCN(CCc4scnc4C)C[C@H]3N2C1=O`, the 50% growth inhibitory concentration (GI50) in data set [3] came out at 4500 nM. Also, the log distribution coefficient (logD) in data set [4] (logD) was found to be 0.3. In addition, in data set [5], the solubility is more than 1000 µM.

In data set [1] (liver microsomes, CLH), `CN[C@@H](C)C(=O)N[C@H]1CCC[C@H]2C[C@H]3CCN(CCc4c[nH]c5ccccc45)C[C@H]3N2C1=O` yielded a microsomal CLint of less than 4 µL/min/mg. In data set [3], this molecule showed a GI50 of 490 nM. For the same molecule, in data set [4] (logD), the logD was 0.9. In addition, the solubility in data set [5] was more than 1000 µM.

Turning to `CN[C@@H](C)C(=O)N[C@H]1CCC[C@H]2C[C@H]3CCN(CCc4ccc(Br)cc4)C[C@H]3N2C1=O`, the microsomal CLint in data set [1] (liver microsomes, CLH) is 4.7 µL/min/mg. The same molecule displayed an unbound share (fraction unbound) in data set [2] (Fu) of 0.17. The molecule also displayed a 50% growth inhibitory concentration (GI50) in data set [3] of 28 nM. The molecule also returned a logD in data set [4] (logD) of 2.2. In addition, in data set [5], the solubility is more than 1000 µM.

Take `CN[C@@H](C)C(=O)N[C@H]1CCC[C@H]2C[C@H]3CCN(C(=O)Oc4ccccc4)C[C@H]3N2C1=O`: the microsomal CLint in data set [1] (liver microsomes) was 6.3 µL/min/mg. Also, the fraction unbound in data set [2] is 0.51. Moreover, the GI50 in data set [3] turned out to be 910 nM. The same molecule gave a log distribution coefficient (logD) in data set [4] of 0.7. In data set [5], this molecule came in with a solubility of 700 µM (≈ 300 µg/mL).

Take `CN[C@@H](C)C(=O)N[C@H]1CCC[C@H]2C[C@H]3CCN(C(=O)OCc4ccccc4)C[C@H]3N2C1=O`: in data set [1] (microsomes, CLH), the microsomal CLint is 20 µL/min/mg. Further, the free fraction (fraction unbound) in data set [2] (Fu) was determined as 0.42. In data set [3], the GI50 is more than 369 nM.

For the molecule `CN[C@@H](C)C(=O)N[C@H]1CCC[C@H]2C[C@H]3CCN(CCc4ccc(Cl)cc4)C[C@H]3N2C1=O`, in data set [1] (liver microsomes, CLH), the microsomal CLint came to 6.6 µL/min/mg. In addition, the fraction unbound in data set [2] (Fu) is 0.24. Further, in data set [3], the concentration for 50% growth inhibition (GI50) turned out to be 340 nM. In data set [4] (logD), this molecule yielded a log distribution coefficient (logD) of 1.8. The molecule also yielded a solubility in data set [5] of more than 1000 µM.

In data set [1] (liver microsomes, CLH), `CN[C@@H](C)C(=O)N[C@H]1CCC[C@H]2C[C@H]3CCN(CCc4ccc(C)cc4)C[C@H]3N2C1=O` registered a microsomal CLint of less than 4 µL/min/mg. In data set [2] (Fu), this molecule had a fraction unbound of 0.32. Besides, the concentration for 50% growth inhibition (GI50) in data set [3] amounted to 160 nM. For the same molecule, in data set [4] (logD), the pH-dependent lipophilicity (logD) turned out to be 1.6. Moreover, in data set [5], the solubility is more than 1000 µM.

In data set [4] (logD), `CN[C@@H](C)C(=O)N[C@H]1CCC[C@H]2C[C@H]3CCN(CCC4=C(C)OCN4C)C[C@H]3N2C1=O` had a pH-dependent lipophilicity (logD) of 0.1. This molecule came in with a 50% inhibitory concentration (IC50) in data set [6] of more than 10000 nM. For the same molecule, the solubility in data set [5] was more than 1000 µM.

As to `CN[C@@H](C)C(=O)N[C@H]1CCC[C@H]2C[C@H]3CCN(CCc4cccc(OC)c4)C[C@H]3N2C1=O`, the intrinsic metabolic clearance (microsomal CLint) in data set [1] (liver microsomes, CLH) was less than 4 µL/min/mg. In data set [2] (Fu), this molecule returned a fraction unbound of 0.47. Halving of growth in data set [3] (GI50) required 670 nM. This molecule yielded a pH-dependent lipophilicity (logD) in data set [4] (logD) of 0.9. The same molecule yielded a solubility in data set [5] of more than 1000 µM.

Take `CN[C@@H](C)C(=O)N[C@H]1CCC[C@H]2C[C@H]3CCN(CCc4ccc([N+](=O)[O-])cc4)C[C@H]3N2C1=O`: the microsomal CLint in data set [1] (liver microsomes, CLH) is less than 4 µL/min/mg. In data set [2] (Fu), this molecule displayed a fraction unbound of 0.47. The same molecule yielded a concentration for 50% growth inhibition (GI50) in data set [3] of 280 nM. Also, the logD in data set [4] (logD) was 1. Further, the solubility in data set [5] was more than 1000 µM.

With `CN[C@@H](C)C(=O)N[C@H]1CCC[C@H]2C[C@H]3CCN(CCc4ccccn4)C[C@H]3N2C1=O`, it took 10000 nM to inhibit growth in data set [3] by half (GI50). Moreover, the log distribution coefficient (logD) in data set [4] (logD) was -0.2. Besides, the concentration for half-maximal inhibition (IC50) in data set [6] was more than 10000 nM.

Regarding `CN[C@@H](C)C(=O)N[C@H]1CCC[C@H]2C[C@H]3CCN(CCc4ccccc4OC)C[C@H]3N2C1=O`, the intrinsic metabolic clearance (microsomal CLint) in data set [1] (liver microsomes, CLH) was less than 4 µL/min/mg. This molecule registered a fraction unbound in data set [2] (Fu) of 0.34. In data set [3], this molecule yielded a GI50 of 230 nM. Further, in data set [4] (logD), the pH-dependent lipophilicity (logD) was 0.9. This molecule showed a solubility in data set [5] of more than 1000 µM.

Molecule `CN[C@@H](C)C(=O)N[C@H]1CCC[C@H]2C[C@H]3CCN(CCc4ccc(OC)cc4)C[C@H]3N2C1=O` had a microsomal CLint in data set [1] (liver microsomes, CLH) of less than 4 µL/min/mg. Further, the fraction unbound in data set [2] (Fu) amounted to 0.47. The same molecule yielded a concentration for 50% growth inhibition (GI50) in data set [3] of 2600 nM. The pH-dependent lipophilicity (logD) in data set [4] (logD) turned out to be 1. In data set [5], this molecule returned a solubility of more than 1000 µM.

As to `CN[C@@H](C)C(=O)N[C@H]1CCC[C@H]2C[C@H]3CCN(CC(C)C)C[C@H]3N2C1=O`, the log distribution coefficient (logD) in data set [4] (logD) was determined as 0.1. Also, the IC50 in data set [6] is more than 10000 nM.

Values taken from ChEMBL document CHEMBL3232969, “Structure-based design and synthesis of tricyclic IAP (Inhibitors of Apoptosis Proteins) inhibitors” (Bioorg Med Chem Lett, 2014).
